According to patent US9616099B2, “Cyclosporin analogues for preventing or treating hepatitis C infection” (Enanta Pharmaceuticals, Inc., priority 2013, dated 2017):
Numbered stars: 1 amine (or outer) side, 2 acyl side, 3 side chain; on linkers, the order of the positions; unused ones are H or OH. Square brackets hold non-standard residues; d marks the D form. Peptide text beside a SMILES is read from it. * marks the point of attachment. X2 = CON(C)C(=O)OCCCC[C@@H](C)[C@@H](O)[C@@H](C(=O)[*:2])N(C)[*:1]; X10 = C[C@H](CCOC(=O)NC1CC1)[C@@H](O)[C@@H](C(=O)[*:2])N(C)[*:1]; X5 = C[C@H](CCCCOC(=O)N(C)C)[C@@H](O)[C@@H](C(=O)[*:2])N(C)[*:1]; X9 = C[C@H](CCCCN=[N+]=[N-])[C@@H](O)[C@@H](C(=O)[*:2])N(C)[*:1]; X7 = CCOC(=O)NCCCC[C@@H](C)[C@@H](O)[C@@H](C(=O)[*:2])N(C)[*:1]; X8 = CCOC(=O)OCCCC[C@@H](C)[C@@H](O)[C@@H](C(=O)[*:2])N(C)[*:1]; X1 = COC(=O)NCCCC[C@@H](C)[C@@H](O)[C@@H](C(=O)[*:2])N(C)[*:1]; X4 = COC(=O)OCCCC[C@@H](C)[C@@H](O)[C@@H](C(=O)[*:2])N(C)[*:1]; X3 = CC(=O)NCCCC[C@@H](C)[C@@H](O)[C@@H](C(=O)[*:2])N(C)[*:1]; NMe(dihydroBmt) = CCCC[C@@H](C)[C@@H](O)[C@H](NC)C(=O)O; X6 = C[C@H](CCCCN)[C@@H](O)[C@@H](C(=O)[*:2])N(C)[*:1]; Butyl(4-morpholino) = C(CC*)CN1CCOCC1; NMeT = CN[C@H](C(=O)O)[C@@H](C)O; NMeL = CN[C@@H](CC(C)C)C(=O)O; NMeV = CN[C@H](C(=O)O)C(C)C; dNMeA = CN[C@H](C)C(=O)O; Abu = CC[C@H](N)C(=O)O

Each compound was assayed on HCV 1a genotype replicon (assay: microbe, parasite or virus in culture). Details: Hepatitis C virus; HCV genotype 1a replicon, luciferase assay, 72 hours; read-out: EC50 (Ia) Genotype-1a Replicon EC50.
Format: cell-based
With `CC[C@@H]1NC(=O)[C@H]([C@H](O)[C@H](C)CCCCN)N(C)C(=O)[C@H](C(C)C)N(C)C(=O)[C@H](CC(C)C)N(C)C(=O)[C@H](CC(C)C)N(C)C(=O)[C@@H](C)NC(=O)[C@H](C)NC(=O)[C@H](CC(C)C)N(C)C(=O)[C@H](C(C)C)NC(=O)[C@H]([C@@H](C)OCCCCN2CCOCC2)N(C)C(=O)[C@@H](C)N(C)C1=O` [Example 69] (cyclo(A[dA][NMeL][NMeL][NMeV][X6][Abu][dNMeA][NMeT](Butyl(4-morpholino))V[NMeL])) the EC50 was 100 to 1000 nM.
For `CCOC(=O)OCCCC[C@@H](C)[C@@H](O)[C@H]1C(=O)N[C@@H](CC)C(=O)N(C)[C@H](C)C(=O)N(C)[C@@H]([C@@H](C)OCCCCN2CCOCC2)C(=O)N[C@@H](C(C)C)C(=O)N(C)[C@@H](CC(C)C)C(=O)N[C@@H](C)C(=O)N[C@H](C)C(=O)N(C)[C@@H](CC(C)C)C(=O)N(C)[C@@H](CC(C)C)C(=O)N(C)[C@@H](C(C)C)C(=O)N1C` [Example 64] (cyclo(A[dA][NMeL][NMeL][NMeV][X8][Abu][dNMeA][NMeT](Butyl(4-morpholino))V[NMeL])), the EC50 was 10 to 100 nM.
With `CCOC(=O)NCCCC[C@@H](C)[C@@H](O)[C@H]1C(=O)N[C@@H](CC)C(=O)N(C)[C@H](C)C(=O)N(C)[C@@H]([C@@H](C)OCCCCN2CCOCC2)C(=O)N[C@@H](C(C)C)C(=O)N(C)[C@@H](CC(C)C)C(=O)N[C@@H](C)C(=O)N[C@H](C)C(=O)N(C)[C@@H](CC(C)C)C(=O)N(C)[C@@H](CC(C)C)C(=O)N(C)[C@@H](C(C)C)C(=O)N1C` [Example 72] (cyclo(A[dA][NMeL][NMeL][NMeV][X7][Abu][dNMeA][NMeT](Butyl(4-morpholino))V[NMeL])) the EC50 was 10 to 100 nM.
Compound `CC[C@@H]1NC(=O)[C@H]([C@H](O)[C@H](C)CCOC(=O)NC2CC2)N(C)C(=O)[C@H](C(C)C)N(C)C(=O)[C@H](CC(C)C)N(C)C(=O)[C@H](CC(C)C)N(C)C(=O)[C@@H](C)NC(=O)[C@H](C)NC(=O)[C@H](CC(C)C)N(C)C(=O)[C@H](C(C)C)NC(=O)[C@H]([C@@H](C)OCCCCN2CCOCC2)N(C)C(=O)[C@@H](C)N(C)C1=O` [Example 6] (cyclo(A[dA][NMeL][NMeL][NMeV][X10][Abu][dNMeA][NMeT](Butyl(4-morpholino))V[NMeL])) has an EC50 of over 1000 nM.
`CC[C@@H]1NC(=O)[C@H]([C@H](O)[C@H](C)CCCCNC(C)=O)N(C)C(=O)[C@H](C(C)C)N(C)C(=O)[C@H](CC(C)C)N(C)C(=O)[C@H](CC(C)C)N(C)C(=O)[C@@H](C)NC(=O)[C@H](C)NC(=O)[C@H](CC(C)C)N(C)C(=O)[C@H](C(C)C)NC(=O)[C@H]([C@@H](C)OCCCCN2CCOCC2)N(C)C(=O)[C@@H](C)N(C)C1=O` [Example 70] (cyclo(A[dA][NMeL][NMeL][NMeV][X3][Abu][dNMeA][NMeT](Butyl(4-morpholino))V[NMeL])) gave an EC50 of 10 to 100 nM.
`CC[C@@H]1NC(=O)[C@H]([C@H](O)[C@H](C)CCCCOC(=O)N(C)C)N(C)C(=O)[C@H](C(C)C)N(C)C(=O)[C@H](CC(C)C)N(C)C(=O)[C@H](CC(C)C)N(C)C(=O)[C@@H](C)NC(=O)[C@H](C)NC(=O)[C@H](CC(C)C)N(C)C(=O)[C@H](C(C)C)NC(=O)[C@H]([C@@H](C)OCCCCN2CCOCC2)N(C)C(=O)[C@@H](C)N(C)C1=O` [Example 65] (cyclo(A[dA][NMeL][NMeL][NMeV][X5][Abu][dNMeA][NMeT](Butyl(4-morpholino))V[NMeL])) was tested, and the EC50 was 10 to 100 nM.
Work on `CC[C@@H]1NC(=O)[C@H]([C@H](O)[C@H](C)CCCCOC(=O)N(C)OC)N(C)C(=O)[C@H](C(C)C)N(C)C(=O)[C@H](CC(C)C)N(C)C(=O)[C@H](CC(C)C)N(C)C(=O)[C@@H](C)NC(=O)[C@H](C)NC(=O)[C@H](CC(C)C)N(C)C(=O)[C@H](C(C)C)NC(=O)[C@H]([C@@H](C)OCCCCN2CCOCC2)N(C)C(=O)[C@@H](C)N(C)C1=O` [Example 66] (cyclo(A[dA][NMeL][NMeL][NMeV][X2][Abu][dNMeA][NMeT](Butyl(4-morpholino))V[NMeL])) yielded an EC50 of 10 to 100 nM.
In the case of `CC[C@@H]1NC(=O)[C@H]([C@H](O)[C@H](C)CCCCN=[N+]=[N-])N(C)C(=O)[C@H](C(C)C)N(C)C(=O)[C@H](CC(C)C)N(C)C(=O)[C@H](CC(C)C)N(C)C(=O)[C@@H](C)NC(=O)[C@H](C)NC(=O)[C@H](CC(C)C)N(C)C(=O)[C@H](C(C)C)NC(=O)[C@H]([C@@H](C)OCCCCN2CCOCC2)N(C)C(=O)[C@@H](C)N(C)C1=O` [Example 68] (cyclo(A[dA][NMeL][NMeL][NMeV][X9][Abu][dNMeA][NMeT](Butyl(4-morpholino))V[NMeL])), the EC50 is reported as 10 to 100 nM.
`CC[C@@H]1NC(=O)[C@H]([C@H](O)[C@H](C)CCCCOC(=O)OC)N(C)C(=O)[C@H](C(C)C)N(C)C(=O)[C@H](CC(C)C)N(C)C(=O)[C@H](CC(C)C)N(C)C(=O)[C@@H](C)NC(=O)[C@H](C)NC(=O)[C@H](CC(C)C)N(C)C(=O)[C@H](C(C)C)NC(=O)[C@H]([C@@H](C)OCCCCN2CCOCC2)N(C)C(=O)[C@@H](C)N(C)C1=O` [Example 63] (cyclo(A[dA][NMeL][NMeL][NMeV][X4][Abu][dNMeA][NMeT](Butyl(4-morpholino))V[NMeL])) gave an EC50 of 10 to 100 nM.
In the case of `CC[C@@H]1NC(=O)[C@H]([C@H](O)[C@H](C)CCCCNC(=O)OC)N(C)C(=O)[C@H](C(C)C)N(C)C(=O)[C@H](CC(C)C)N(C)C(=O)[C@H](CC(C)C)N(C)C(=O)[C@@H](C)NC(=O)[C@H](C)NC(=O)[C@H](CC(C)C)N(C)C(=O)[C@H](C(C)C)NC(=O)[C@H]([C@@H](C)OCCCCN2CCOCC2)N(C)C(=O)[C@@H](C)N(C)C1=O` [Example 71] (cyclo(A[dA][NMeL][NMeL][NMeV][X1][Abu][dNMeA][NMeT](Butyl(4-morpholino))V[NMeL])), the EC50 is reported as 10 to 100 nM.
`CCCC[C@@H](C)[C@@H](O)[C@H]1C(=O)N[C@@H](CC)C(=O)N(C)[C@H](C)C(=O)N(C)[C@@H]([C@@H](C)OCCCCN2CCOCC2)C(=O)N[C@@H](C(C)C)C(=O)N(C)[C@@H](CC(C)C)C(=O)N[C@@H](C)C(=O)N[C@H](C)C(=O)N(C)[C@@H](CC(C)C)C(=O)N(C)[C@@H](CC(C)C)C(=O)N(C)[C@@H](C(C)C)C(=O)N1C` [Example 7] (cyclo(A[dA][NMeL][NMeL][NMeV][NMe(dihydroBmt)][Abu][dNMeA][NMeT](Butyl(4-morpholino))V[NMeL])) was tested, and the EC50 was 10 to 100 nM.
